Calls of active or inactive are those of the source. The rule behind the calls is not given here.
How the values were obtained:
[1] = Cmax in ICR mouse at 10 mg/kg, po administered via gavage by mass spectrometric analysis; format: ADME, organism-based; parameters: dose 10 mg/kg, route oral; settings: in vivo
[2] = target: Histone-lysine N-methyltransferase EHMT2 (Homo sapiens) (UniProt Q96KQ7); experiment: Inhibition of G9a (unknown origin) up to 50 uM preincubated for 15 mins followed by substrate addition and measured after 60 mins by AlphaLisa assay
[3] = Ratio of drug level in tumor of nude BALB/c mouse xenografted with human MOLM13 cells to IC50 for antiproliferative activity against human MOLM13 cells; format: cell-based
[4] = Selectivity ratio of IC50 for antiproliferative activity against human MOLM13 cells to IC50 for inhibition of PRMT4 in human MOLM13 cells assessed as reduction in BAF155 dimethylation
[5] = Oral bioavailability in ICR mouse at 10 mg/kg administered via gavage by mass spectrometric analysis; format: ADME, organism-based; settings: in vivo
MOLM-13 [6] = experiment: Induction of apoptosis in human MOLM13 cells assessed as total apoptotic cells at 12 uM measured after 96 hrs by Annexin V-FITC/propidium iodide staining-based flow cytometry relative to control; format: functional
[7] = target: Protein arginine N-methyltransferase 3 (Homo sapiens, UniProt O60678); experiment: Inhibition of PRMT3 (unknown origin) preincubated for 15 mins followed by substrate addition and measured after 60 mins by AlphaLisa assay
MV4-11 = experiment: Antiproliferative activity against human MV4-11 cells measured after 6 days by CCK8/SRB assay; format: functional, cell-based
[8] = target: Histone-lysine N-methyltransferase EZH2 (Homo sapiens) (UniProt Q15910); experiment: Inhibition of EZH2 (unknown origin) up to 50 uM preincubated for 10 mins followed by peptide substrate addition and measured after 4 hrs in presence of SAM by HTRF assay
Mus musculus = experiment: In vivo inhibition of PRMT4 in nude BALB/c mouse xenografted with human MOLM13 cells assessed as reduction in BAF155 dimethylation at 100 mg/kg, po administered daily for 18 days measured 6 hrs post-last dose by Western blot analysis; format: functional, organism-based
MOLM-13 [9] = experiment: Cell cycle arrest in human MOLM13 cells assessed as decrease in accumulation at S-phase measured after 72 hrs by propidium iodide staining-based flow cytometry; format: functional
[10] = target: Protein arginine N-methyltransferase 6 (Homo sapiens, UniProt Q96LA8); experiment: Inhibition of PRMT6 (unknown origin) preincubated for 15 mins followed by substrate addition and measured after 60 mins by AlphaLisa assay
[11] = target: T1, Histone-arginine methyltransferase CARM1 (Homo sapiens, UniProt Q86X55); experiment: Inhibition of PRMT4 (unknown origin) using histone H3 (21 to 44 residues) as substrate measured after 60 mins in presence of SAM by AlphaLisa assay
T1 sequence (Q86X55 whole entry): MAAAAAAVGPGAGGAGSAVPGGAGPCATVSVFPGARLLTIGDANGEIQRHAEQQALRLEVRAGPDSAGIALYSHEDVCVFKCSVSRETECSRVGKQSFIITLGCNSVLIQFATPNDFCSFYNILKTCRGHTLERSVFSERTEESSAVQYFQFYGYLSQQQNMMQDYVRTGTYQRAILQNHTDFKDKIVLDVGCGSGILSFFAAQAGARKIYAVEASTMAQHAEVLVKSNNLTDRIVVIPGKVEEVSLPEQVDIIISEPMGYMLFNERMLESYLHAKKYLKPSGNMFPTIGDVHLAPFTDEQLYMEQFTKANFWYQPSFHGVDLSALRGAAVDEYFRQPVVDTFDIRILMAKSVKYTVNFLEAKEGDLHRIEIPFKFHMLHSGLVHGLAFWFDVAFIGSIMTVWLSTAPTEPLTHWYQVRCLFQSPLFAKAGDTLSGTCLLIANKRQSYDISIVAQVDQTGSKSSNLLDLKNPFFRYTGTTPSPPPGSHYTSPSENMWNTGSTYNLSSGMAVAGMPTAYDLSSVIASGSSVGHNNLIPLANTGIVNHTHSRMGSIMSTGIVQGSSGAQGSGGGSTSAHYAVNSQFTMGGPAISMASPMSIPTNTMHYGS

[12] = Toxicity in nude BALB/c mouse xenografted with human MOLM13 cells assessed as visible changes at 100 mg/kg, po administered daily for 18 days; format: organism-based; settings: in vivo, 432 h
[13] = AUC (0 to infinity) in ICR mouse at 3 mg/kg, iv by mass spectrometric analysis; format: ADME, organism-based; parameters: dose 3 mg/kg, route intravenous, time infinity; settings: in vivo
[14] = target: Protein arginine N-methyltransferase 7 (Homo sapiens, UniProt Q9NVM4); experiment: Inhibition of recombinant full-length human PRMT7 expressed in Sf9 insect cells using Ac-KKDGKKRKRSRKESYK-biotin as substrate measured after 30 mins in presence of SAM by topcount scintillation counting method
[15] = Selectivity ratio of IC50 for antiproliferative activity against human MOLM13 cells to IC50 for inhibition of PRMT4 in human MOLM13 cells assessed as reduction in PABP1 dimethylation
[16] = target: T1, Histone-arginine methyltransferase CARM1; experiment: Inhibition of PRMT4 in human MOLM13 cells assessed as reduction in BAF155 dimethylation measured after 96 hrs by Western blotting analysis; format: cell-based
MOLM-13 [17] = experiment: Induction of apoptosis in human MOLM13 cells measured after 96 hrs by Annexin V-FITC/propidium iodide staining-based flow cytometry; format: functional, cell-based
[18] = target: Histone-lysine N-methyltransferase, H3 lysine-79 specific (Homo sapiens) (UniProt Q8TEK3); experiment: Inhibition of DOT1L (unknown origin) up to 50 uM preincubated for 15 mins followed by substrate addition and measured after 60 mins by AlphaLisa assay
[19] = target: Histone-lysine N-methyltransferase SMYD3 (Homo sapiens) (UniProt Q9H7B4); experiment: Inhibition of SMYD3 (unknown origin) up to 50 uM preincubated for 15 mins followed by substrate addition and measured after 60 mins by AlphaLisa assay
[20] = target: Protein arginine N-methyltransferase 1 (Homo sapiens, UniProt Q99873); experiment: Inhibition of PRMT1 (unknown origin) preincubated for 15 mins followed by substrate addition and measured after 60 mins by AlphaLisa assay
[21] = AUC (0 to last) in ICR mouse at 10 mg/kg, po administered via gavage by mass spectrometric analysis; format: ADME, organism-based; parameters: dose 10 mg/kg, route oral, time 0 - last; settings: in vivo
MOLM-13 [22] = experiment: Antitumor activity against human MOLM13 cells xenografted in BALB/c nude mouse assessed as tumor growth inhibition at 100 mg/kg, po administered daily for 18 days measured 2 to 3 times a week by caliper method relative to control; format: functional; settings: MOLM-13, po, 432 h, read-out: TGI
[23] = Drug level in ICR mouse plasma at 10 mg/kg, po administered via gavage measured after 0.25 to 24 hrs by mass spectrometric analysis; format: ADME, organism-based; settings: in vivo
[24] = Half life in ICR mouse at 10 mg/kg, po administered via gavage by mass spectrometric analysis; format: ADME, organism-based; settings: in vivo
[25] = Tmax in ICR mouse at 10 mg/kg, po administered via gavage by mass spectrometric analysis; format: ADME, organism-based; settings: in vivo
[26] = target: Histone-lysine N-methyltransferase 2A (Homo sapiens) (UniProt Q03164); experiment: Inhibition of MLL1 (unknown origin) up to 50 uM preincubated for 10 mins followed by peptide substrate addition and measured after 4 hrs in presence of SAM by HTRF assay
RS4-11 = experiment: Antiproliferative activity against human RS4:11 cells measured after 6 days by CCK8/SRB assay; format: functional, cell-based

Chain of Histone-lysine N-methyltransferase, H3 lysine-79 specific (Homo sapiens) (Q8TEK3 whole entry, looked up): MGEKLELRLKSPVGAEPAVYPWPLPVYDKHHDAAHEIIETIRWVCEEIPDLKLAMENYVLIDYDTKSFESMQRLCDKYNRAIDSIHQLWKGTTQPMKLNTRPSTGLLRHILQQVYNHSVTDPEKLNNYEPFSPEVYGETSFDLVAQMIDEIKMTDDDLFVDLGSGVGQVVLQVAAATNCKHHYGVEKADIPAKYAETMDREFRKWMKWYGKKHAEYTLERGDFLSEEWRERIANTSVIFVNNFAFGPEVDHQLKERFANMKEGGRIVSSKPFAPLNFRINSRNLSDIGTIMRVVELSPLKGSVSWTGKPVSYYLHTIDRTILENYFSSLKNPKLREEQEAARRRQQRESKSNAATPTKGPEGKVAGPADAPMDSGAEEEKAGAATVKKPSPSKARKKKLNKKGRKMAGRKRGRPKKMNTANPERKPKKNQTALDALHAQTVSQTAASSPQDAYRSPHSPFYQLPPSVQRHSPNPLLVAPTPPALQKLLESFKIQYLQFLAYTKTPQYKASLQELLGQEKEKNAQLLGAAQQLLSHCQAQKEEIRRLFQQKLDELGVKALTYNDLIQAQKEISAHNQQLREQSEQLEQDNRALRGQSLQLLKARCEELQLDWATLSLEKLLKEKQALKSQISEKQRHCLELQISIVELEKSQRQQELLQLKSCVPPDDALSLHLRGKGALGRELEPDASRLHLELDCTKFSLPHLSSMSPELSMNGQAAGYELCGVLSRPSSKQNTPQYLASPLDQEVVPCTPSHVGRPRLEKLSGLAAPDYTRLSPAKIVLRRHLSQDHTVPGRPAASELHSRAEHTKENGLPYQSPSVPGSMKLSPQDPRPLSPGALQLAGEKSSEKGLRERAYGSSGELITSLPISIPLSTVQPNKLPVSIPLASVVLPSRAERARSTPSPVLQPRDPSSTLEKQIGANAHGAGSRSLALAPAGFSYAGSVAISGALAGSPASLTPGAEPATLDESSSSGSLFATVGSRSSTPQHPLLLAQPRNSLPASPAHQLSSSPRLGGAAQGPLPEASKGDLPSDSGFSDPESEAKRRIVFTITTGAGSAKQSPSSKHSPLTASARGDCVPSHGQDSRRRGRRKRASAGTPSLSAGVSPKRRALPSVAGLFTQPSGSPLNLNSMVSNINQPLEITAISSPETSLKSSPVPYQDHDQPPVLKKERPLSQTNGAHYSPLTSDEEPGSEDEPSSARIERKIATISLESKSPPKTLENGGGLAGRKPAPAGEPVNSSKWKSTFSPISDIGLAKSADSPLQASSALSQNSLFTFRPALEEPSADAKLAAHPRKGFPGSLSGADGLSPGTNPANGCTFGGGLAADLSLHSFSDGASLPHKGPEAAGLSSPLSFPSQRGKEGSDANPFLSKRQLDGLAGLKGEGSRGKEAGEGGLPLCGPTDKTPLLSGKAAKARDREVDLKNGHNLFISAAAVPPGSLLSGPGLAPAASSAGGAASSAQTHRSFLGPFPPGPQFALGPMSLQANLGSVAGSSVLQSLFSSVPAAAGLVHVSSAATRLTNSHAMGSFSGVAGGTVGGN
Chain of Histone-lysine N-methyltransferase EHMT2 (Homo sapiens) (Q96KQ7 whole entry): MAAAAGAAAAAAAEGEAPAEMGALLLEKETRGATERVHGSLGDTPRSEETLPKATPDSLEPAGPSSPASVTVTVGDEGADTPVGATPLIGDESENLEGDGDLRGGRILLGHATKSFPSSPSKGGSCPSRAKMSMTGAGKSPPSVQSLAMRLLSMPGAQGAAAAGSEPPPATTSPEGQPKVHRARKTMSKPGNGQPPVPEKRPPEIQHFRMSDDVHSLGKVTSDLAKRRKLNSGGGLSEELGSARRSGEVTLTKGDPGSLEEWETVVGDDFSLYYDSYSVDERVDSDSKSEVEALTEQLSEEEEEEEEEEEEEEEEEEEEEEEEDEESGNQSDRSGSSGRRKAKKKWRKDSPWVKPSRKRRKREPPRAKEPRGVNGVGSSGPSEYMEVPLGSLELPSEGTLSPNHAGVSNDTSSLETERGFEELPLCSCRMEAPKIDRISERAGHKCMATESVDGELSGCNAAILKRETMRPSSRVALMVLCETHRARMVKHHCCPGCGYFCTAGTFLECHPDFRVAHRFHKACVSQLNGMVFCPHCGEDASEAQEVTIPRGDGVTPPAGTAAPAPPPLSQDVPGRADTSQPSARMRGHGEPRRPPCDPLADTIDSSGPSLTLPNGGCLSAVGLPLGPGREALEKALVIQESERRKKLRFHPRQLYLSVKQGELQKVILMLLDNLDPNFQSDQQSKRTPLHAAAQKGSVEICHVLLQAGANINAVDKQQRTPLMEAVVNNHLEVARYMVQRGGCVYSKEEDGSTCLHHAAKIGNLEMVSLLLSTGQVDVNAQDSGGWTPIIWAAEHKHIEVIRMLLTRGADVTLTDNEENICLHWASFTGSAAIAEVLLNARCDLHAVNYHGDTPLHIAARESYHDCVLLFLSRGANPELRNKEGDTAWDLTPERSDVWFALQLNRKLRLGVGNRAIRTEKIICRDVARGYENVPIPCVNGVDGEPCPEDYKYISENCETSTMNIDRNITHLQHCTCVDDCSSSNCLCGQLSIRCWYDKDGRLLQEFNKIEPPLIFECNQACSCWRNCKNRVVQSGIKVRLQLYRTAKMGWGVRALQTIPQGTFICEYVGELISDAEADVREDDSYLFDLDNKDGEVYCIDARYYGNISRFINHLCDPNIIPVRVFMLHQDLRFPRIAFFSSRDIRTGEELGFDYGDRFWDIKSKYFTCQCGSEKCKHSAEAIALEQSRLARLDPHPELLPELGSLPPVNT
Chain of Protein arginine N-methyltransferase 7 (Q9NVM4 whole entry): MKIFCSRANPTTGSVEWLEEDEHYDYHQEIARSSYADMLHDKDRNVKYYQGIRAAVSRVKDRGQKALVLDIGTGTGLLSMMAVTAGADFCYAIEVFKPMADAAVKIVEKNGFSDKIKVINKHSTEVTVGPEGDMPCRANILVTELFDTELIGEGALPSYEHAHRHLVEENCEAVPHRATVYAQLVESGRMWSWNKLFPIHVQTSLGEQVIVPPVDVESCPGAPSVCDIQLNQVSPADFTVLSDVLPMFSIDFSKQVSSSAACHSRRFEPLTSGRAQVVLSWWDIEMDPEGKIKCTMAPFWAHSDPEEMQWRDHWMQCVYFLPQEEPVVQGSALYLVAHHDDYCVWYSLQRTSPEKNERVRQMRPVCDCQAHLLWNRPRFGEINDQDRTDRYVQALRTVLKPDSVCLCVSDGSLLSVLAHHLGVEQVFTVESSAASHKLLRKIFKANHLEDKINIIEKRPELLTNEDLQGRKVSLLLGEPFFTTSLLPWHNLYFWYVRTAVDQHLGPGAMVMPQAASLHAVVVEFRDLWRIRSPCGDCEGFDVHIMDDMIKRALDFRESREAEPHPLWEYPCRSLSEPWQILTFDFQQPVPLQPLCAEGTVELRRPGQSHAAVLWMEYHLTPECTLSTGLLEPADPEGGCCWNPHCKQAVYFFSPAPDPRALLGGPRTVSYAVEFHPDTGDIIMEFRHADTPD
Chain of Protein arginine N-methyltransferase 1 (Q99873 whole entry): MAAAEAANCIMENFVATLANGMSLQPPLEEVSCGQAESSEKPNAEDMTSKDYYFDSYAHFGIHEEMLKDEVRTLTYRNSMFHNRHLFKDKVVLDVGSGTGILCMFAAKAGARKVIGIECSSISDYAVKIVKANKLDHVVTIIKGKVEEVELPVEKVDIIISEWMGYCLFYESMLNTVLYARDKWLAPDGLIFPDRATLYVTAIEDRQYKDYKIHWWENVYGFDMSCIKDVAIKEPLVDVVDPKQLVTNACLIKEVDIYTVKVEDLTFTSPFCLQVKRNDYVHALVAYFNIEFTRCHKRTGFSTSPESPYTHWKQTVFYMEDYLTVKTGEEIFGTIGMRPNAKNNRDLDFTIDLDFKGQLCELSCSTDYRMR
Chain of Protein arginine N-methyltransferase 3 (O60678 whole entry): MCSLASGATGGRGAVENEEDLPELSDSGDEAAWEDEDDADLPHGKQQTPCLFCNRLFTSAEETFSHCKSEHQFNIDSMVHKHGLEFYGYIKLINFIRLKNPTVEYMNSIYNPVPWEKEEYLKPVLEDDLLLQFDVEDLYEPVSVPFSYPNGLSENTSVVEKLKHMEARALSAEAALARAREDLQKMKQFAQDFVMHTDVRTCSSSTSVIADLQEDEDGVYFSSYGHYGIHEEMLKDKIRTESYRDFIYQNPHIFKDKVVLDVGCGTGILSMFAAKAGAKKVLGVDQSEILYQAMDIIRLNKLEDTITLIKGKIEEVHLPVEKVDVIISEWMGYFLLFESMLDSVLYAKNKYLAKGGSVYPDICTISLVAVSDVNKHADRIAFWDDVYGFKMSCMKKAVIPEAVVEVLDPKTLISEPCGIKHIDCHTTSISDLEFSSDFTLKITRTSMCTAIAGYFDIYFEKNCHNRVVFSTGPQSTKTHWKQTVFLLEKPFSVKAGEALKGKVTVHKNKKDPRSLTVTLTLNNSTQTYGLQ
Chain of Protein arginine N-methyltransferase 6 (Q96LA8 whole entry, the tested form may be a part): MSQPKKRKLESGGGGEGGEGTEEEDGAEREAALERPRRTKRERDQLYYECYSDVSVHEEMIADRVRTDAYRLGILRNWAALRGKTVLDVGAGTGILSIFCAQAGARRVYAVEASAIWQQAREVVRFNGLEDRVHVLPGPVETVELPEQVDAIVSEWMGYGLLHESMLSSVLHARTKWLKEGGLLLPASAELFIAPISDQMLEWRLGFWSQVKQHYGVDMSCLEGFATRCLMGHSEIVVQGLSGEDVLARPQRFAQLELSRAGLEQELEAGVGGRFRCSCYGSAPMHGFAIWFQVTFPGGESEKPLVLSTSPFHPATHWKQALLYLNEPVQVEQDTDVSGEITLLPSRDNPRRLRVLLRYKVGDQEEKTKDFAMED

## CNC[C@@H](O)CN1CCc2c(cccc2OCc2ccc(-c3nccs3)cc2)C1
[1]
  Cmax: 75.4 ng/mL
[2]
  inhibition: inactive
[3]
  Ratio: 20 to 30
[4]
  Ratio IC50: 10
[5]
  bioavailability: 48.8%
MOLM-13 [6]
  Activity: 96.4%
[7]
  IC50: > 10 µM
MV4-11
  Activity: Dose-dependent effect
[8]
  inhibition: inactive
Mus musculus
  inhibition: Active
MOLM-13 [9]
  Activity: Dose-dependent effect
[10]
  IC50: 7.9 µM
[11]
  IC50: 21 nM
[12]
  Activity: Non-Toxic
[13]
  AUC(0-inf): 1160 ng·h/mL
[14]
  IC50: > 30 µM
[15]
  Ratio IC50: 10
[16]
  IC50: 369 nM
MOLM-13 [17]
  Activity: Dose-dependent effect
[18]
  inhibition: inactive
[19]
  inhibition: inactive
[20]
  IC50: 8.6 µM
[21]
  AUC(0-t): 1410 ng·h/mL
MOLM-13 [22]
  inhibition in vivo at 100 mg/kg: 53.5%
[23]
  concentration: 120 nM
[24]
  half-life: 1450 min
[25]
  Tmax: 8 h
[26]
  inhibition: inactive
RS4-11
  Activity: Dose-dependent effect
